Assay [1] deals with GluN1/GluN2 (2A-2D) receptors. Put plainly: TEVC recording in Xenopus oocytes expressing GluN1/GluN2 (2A-2D). Particulars: 30 μM WZB117; 100 μM glycine and 100 μM glutamate coapplied. In kind it is cell-based. The procedure: Two-electrode voltage-clamp (TEVC) recordings were performed on Xenopus oocytes expressing various subtypes of recombinant NMDARs. Each oocyte was injected with a mixture of 0.5–1.0 ng cDNAs or cRNAs encoding wild-type (WT) or mutant GluN1 (GluN1-1a or GluN1-4a) and GluN2 (2A-2D) or GluN3 (3A-3B) at a ratio of 1:1. The mutant GluN1-4a ^F484A/T518L was injected together with GluN3B to boost the currents of GluN1/GluN3B receptors, and WT GluN1-1a was used unless otherwise stated. The cRNAs of GluN1-4a, GluN3A and GluN3B were transcribed from corresponding DNAs using the mMESSAGE mMACHINE T7 Ultra kit (Life Technologies) according to the manufacturer’s instructions, and the others not specified were cDNAs. TEVC recording was performed 24–72 h post injection in extracellular solution containing (in mM): 100 NaCl, 0.3 BaCl2, 2.5 KCl, 0.01 DTPA and 5 HEPES, and the pH was adjusted to 7.3 using NaOH. All recordings were carried out at a holding potential of −60 mV.

In assay [2] the test system is GluN2-containing NMDARs. Put plainly: Whole-cell patch-clamp, NMDA-induced native currents in acutely isolated hippocampal neurons. Type of assay: cell-based, rat. Particulars: 10 μM WZB117. How it is done: Hippocampal neurons were obtained from Sprague-Dawley rats (aged P7-14). Briefly, the isolated hippocampal tissues were cut into approximately […] slices along the sagittal plane and were digested with 3 mg/ml proteinase (Sigma-Aldrich) at 32°C for 8 min. Then 1 mg/ml bovine serum albumin (Sangon Biotech) and 1 mg/ml trypsin inhibitor (Sigma-Aldrich) were used to stop the digestion. A few slices of the hippocampus were gently blown into single cells with the dissecting solution, then transferred to a dish and left to rest for 20 min before experiments. The dishes were preprocessed. Essentially, the bottom of the dish was covered with discarded cell suspension the day before the experiment and was washed and dried the next day, which prevented the neurons from sticking to the bottom too tightly. The dissecting solution contained (in mM): 82 Na2SO4, 30 K2SO4, 5 MgCl2, 1 Na pyruvate, 10 HEPES, and 20 glucose. The pH was adjusted to 7.2 using NaOH ([Xie et al., 2020]).
Whole-cell patch-clamp recordings were performed at room temperature (22–25°C) using an EPC-10 amplifier and Patch Master Software (HEKA). Pipettes were pulled from borosilicate glass capillaries (World Precision Instruments), and the resistances were 3–5 MΩ when filled with the intracellular solution. […]

The target of assay [3] is T1, chimera GluN1/GluN2A^550-553 LEPF/MWPL (Homo sapiens, UniProt Q05586+Q12879, E551W/F553L/L550M).
T1 construct: expressed in transfected cells; host or cells: CHO, transient
T1 sequence (Q12879 23-1464 L550M/E551W/F553L, other chains not shown): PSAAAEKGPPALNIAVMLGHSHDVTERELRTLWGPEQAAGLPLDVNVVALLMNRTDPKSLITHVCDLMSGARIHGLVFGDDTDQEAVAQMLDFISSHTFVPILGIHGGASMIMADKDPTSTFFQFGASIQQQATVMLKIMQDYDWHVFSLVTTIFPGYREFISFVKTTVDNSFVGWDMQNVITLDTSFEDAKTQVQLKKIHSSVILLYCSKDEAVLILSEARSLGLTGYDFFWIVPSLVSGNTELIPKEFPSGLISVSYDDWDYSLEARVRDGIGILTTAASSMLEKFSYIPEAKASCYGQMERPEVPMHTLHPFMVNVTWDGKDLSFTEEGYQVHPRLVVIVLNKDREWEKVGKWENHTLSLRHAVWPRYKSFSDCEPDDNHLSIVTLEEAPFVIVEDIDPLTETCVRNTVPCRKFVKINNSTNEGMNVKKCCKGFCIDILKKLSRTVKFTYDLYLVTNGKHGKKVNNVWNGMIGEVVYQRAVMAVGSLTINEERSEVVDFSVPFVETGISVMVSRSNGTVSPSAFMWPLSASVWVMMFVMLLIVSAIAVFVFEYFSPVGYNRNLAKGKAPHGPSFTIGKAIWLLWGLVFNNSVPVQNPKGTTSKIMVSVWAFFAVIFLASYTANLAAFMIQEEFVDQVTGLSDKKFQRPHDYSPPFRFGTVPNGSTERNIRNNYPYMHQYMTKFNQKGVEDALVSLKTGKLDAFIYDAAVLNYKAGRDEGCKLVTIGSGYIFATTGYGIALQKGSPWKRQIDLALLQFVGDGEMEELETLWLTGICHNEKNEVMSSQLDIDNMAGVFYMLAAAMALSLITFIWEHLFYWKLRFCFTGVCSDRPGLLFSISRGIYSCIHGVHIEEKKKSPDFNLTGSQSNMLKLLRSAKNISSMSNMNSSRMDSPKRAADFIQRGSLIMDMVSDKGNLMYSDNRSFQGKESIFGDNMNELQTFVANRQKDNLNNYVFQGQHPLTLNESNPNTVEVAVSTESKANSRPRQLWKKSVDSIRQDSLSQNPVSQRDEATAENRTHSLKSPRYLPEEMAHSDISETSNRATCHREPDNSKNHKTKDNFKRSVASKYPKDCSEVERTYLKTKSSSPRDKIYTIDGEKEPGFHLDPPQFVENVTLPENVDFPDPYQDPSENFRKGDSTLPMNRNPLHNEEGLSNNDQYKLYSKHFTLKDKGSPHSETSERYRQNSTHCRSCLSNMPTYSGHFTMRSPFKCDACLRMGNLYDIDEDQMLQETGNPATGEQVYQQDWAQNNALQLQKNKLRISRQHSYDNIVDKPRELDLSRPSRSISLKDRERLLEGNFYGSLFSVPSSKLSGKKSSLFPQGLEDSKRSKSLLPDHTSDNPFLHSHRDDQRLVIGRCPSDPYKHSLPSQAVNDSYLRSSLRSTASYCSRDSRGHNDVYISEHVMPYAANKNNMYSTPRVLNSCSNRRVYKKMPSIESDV
Put plainly: Whole-cell patch-clamp on transiently transfected CHO cells, GluN2A chimera. Type of assay: cell-based. How it is done: To establish GluN1/GluN3A stable cell lines, the human GluN1-1a (GenBank: NP_015566.1) and the rat GluN3A (GenBank: NP_612555.1) genes were subcloned into the pcDNA5-FRT-To and pcDNA3.1 vectors, respectively. An EGFP tag was added to the C-terminus of GluN1 or GluN3A using a T2A linker for identification of transfected cells during transient transfection. Point mutations were introduced by site-directed mutagenesis using PrimeSTAR (Takara). The human GluN2A (GenBank: NP_000824.1) gene was subcloned into the pcDNA3.1 vector. The chimeras GluN3A^670-673 MWPL/LEPF and GluN2A^550-553 LEPF/MWPL were generated using In-Fusion HD Cloning kits (Takara). All constructs were confirmed by DNA sequencing (Beijing Genomics Institute).
The Flp-in T-Rex 293 cell lines (Invitrogen), stably expressing GluN1/GluN3A were grown in DMEM basal medium (Gibco) supplemented with 10% fetal bovine serum (FBS, Invitrogen), 15 μg/ml blasticidin S (Invitrogen), 50 μg/ml hygromycin B (Invitrogen) and 500 μg/ml G418 (Gibco). Expression in cell lines was induced with 1 μg/ml doxycycline (Invitrogen) 24–28 h prior to the experiments. Chinese hamster ovary (CHO) cells were grown in DMEM-F12 basal medium (Gibco) supplemented with 10% FBS. In the study on the action sites of WZB117, all whole-cell patch-clamp recordings were performed on CHO cells. […]
(In general: In patch-clamp work, channel activity is measured electrically.)

Take `O=C(Oc1cccc(F)c1OC(=O)c1cccc(O)c1)c1cccc(O)c1` [WZB117, 3-fluoro-1,2-phenylene bis(3-hydroxybenzoate)]: in assay [1], the inhibition of currents result was “relatively weak inhibition”. Besides, the “I drug/I control” value in assay [2] stood at 0.73 ± 0.01. The sensitivity of chimera result in assay [3] was “acquired higher sensitivity”.

The record behind these values is paper PMC9218946, “Identification of a Subtype-Selective Allosteric Inhibitor of GluN1/GluN3 NMDA Receptors” (Frontiers in Pharmacology, 2022).
